Source: patent publication US20260373165A1, “PHARMACEUTICAL COMBINATIONS AND COMPOSITIONS, AND METHODS OF USE THEREOF” (SHENZHEN HIGHTIDE BIOPHARMACEUTICAL LTD., priority 2022, published 2026)
Entries after “also recorded” stand apart in the source; their conditions may differ.

Assays:
Assay type in all cases: in vivo, mouse (C57BL/6J male, 60% HFD DIO)
[1] = Example 1: fasting blood glucose level; settings: semaglutide 10 nmol/kg s.c. Q3D
Description: (§1) After 5-week-old C57BL/6J male mice were acclimatized for 1 week, the weight of each mouse was weighed, and the mice were randomly divided into a control group and a model group by taking the weight as a main index, where 12 mice in the control group were fed with common feed (CD), and the mice in the remaining model group were fed with 60% high-fat feed (60% HFD) for 10-12 weeks to construct a DIO obesity model, with the average body weight being not less than 40 g. The mice fed with 60% HFD were grabbed and acclimatized with a solvent for 3 days, where the acclimatization with a solvent was performed by oral gavage of 0.5% CMC-Na, twice daily.
(§2) The food intake, the body weight, the body fat ratio, and the insulin level of the mice were respectively measured, followed by fasting blood glucose level, and the mice were randomly grouped according to Table 3 by taking the body weight as an index, and the remaining ungrouped mice were euthanized. After grouping, each group of mice was administered according to Table 3, the day of administration was defined as DO, and the administration volume of each drug was determined based on the results obtained by the calculation of 5 μL/g× mouse body weight (g).
For the combined administration group, the total administration volume was the sum of the administration volumes of two single drugs, and the administration sequence and the administration time were kept consistent at each administration. The mice were continuously fed with high-fat feed during the administration period until the administration was finished. […]
After 20 days of administration, fasting blood glucose level results were measured for each group of animals and are shown in Table 8 below and FIG. 11.

[2] = Example 1: liver, abdominal and subcutaneous fat weight after 28 days; settings: mean, HTD1801 200 mpk, empagliflozin 10 mpk in last 2 weeks (300/15 mpk before)
Description: as §1, §2
(§3) For the combined administration group, the total administration volume was the sum of the administration volumes of two single drugs, and the administration sequence and the administration time were kept consistent at each administration. The mice were continuously fed with high-fat feed during the administration period until the administration was finished. During administration, 2 food intakes were measured per week (difference in feed weights at an interval of 24 h was measured); each group of mice was weighed once daily; postprandial blood glucose levels were measured weekly; blood was collected from the tail tip on day 6 and day 20, respectively, so as to measure fasting blood glucose levels once (blood was collected after fasting from 8:00 am to […]); on day 25 of administration, the body fat ratio and the lean mass of each group of mice were measured by MRI (the measurement period was kept consistent with that before grouping); after 4 weeks of administration intervention (day 28), each group of mice was fasted for 6 h and subjected to OGTT (0 min, 15 min, 30 min, 60 min, 90 min, 120 min) to detect their blood glucose levels, and meanwhile subjected to blood sampling via submaxillary vein (0 min, 15 min, 30 min, about 30 μL of blood sampled each time), and then the blood plasma was separated for detecting the insulin level by ELISA, where the separated blood plasma was more than 10 μL; the next day (D29) at the end of administration was set as the test endpoint, and the mice were fasted for 6 h in the morning and subjected to fasting blood glucose level measurement; subsequently, the mice were euthanized with CO2, blood was collected from the heart of each mouse for analysis, and each group of mice was dissected; the liver and subcutaneous, epididymal and mesenteric fat was collected, photographed and weighed, respectively.
After 28 days of administration, the mice were euthanized with CO2 the next day, and the mice of groups G1 to G5 were dissected, and liver and abdominal fat (including epididymis and mesentery), and subcutaneous fat were collected, photographed and weighed, respectively, and the results are shown in Table 6 below, FIG. 6, FIG. 7, and FIG. 8.

[3] = Example 1: body weight and body weight change rate, combined administration of HTD1801 and empagliflozin in DIO obesity model; settings: semaglutide 10 nmol/kg s.c. Q3D
Description: as §1, §2, §3

[4] = Example 1: body fat mass by MRI after 25 days
Description: as §1, §2, §3
After 25 days of administration, the body weight, the body fat mass and the body fat ratio of each animal in groups G1 to G6 were measured and averaged for each group, and the results are shown in Table 5 below, FIG. 4 and FIG. 5.

[5] = Example 1: lean mass by MRI after 25 days
Description: as §1, §2, §3
After 25 days of administration, the body weight, the Lean weight and the lean ratio of each animal in groups G1 to G5 were measured and averaged for each group, and the results are shown in Table 7 below, FIG. 9 and FIG. 10.

[6] = day 6, HTD1801 300 mpk, empagliflozin 15 mpk gavage QD
[7] = day 0 (baseline), HTD1801 300 mpk, empagliflozin 15 mpk gavage QD
[8] = day 1, HTD1801 300 mpk, empagliflozin 15 mpk gavage QD
[9] = day 2, HTD1801 300 mpk, empagliflozin 15 mpk gavage QD
[10] = day 3, HTD1801 300 mpk, empagliflozin 15 mpk gavage QD
[11] = day 4, HTD1801 300 mpk, empagliflozin 15 mpk gavage QD
[12] = day 5, HTD1801 300 mpk, empagliflozin 15 mpk gavage QD
[13] = day 7, HTD1801 300 mpk, empagliflozin 15 mpk gavage QD
[14] = day 8, HTD1801 300 mpk, empagliflozin 15 mpk gavage QD
[15] = day 9, HTD1801 300 mpk, empagliflozin 15 mpk gavage QD
[16] = day 10, HTD1801 300 mpk, empagliflozin 15 mpk gavage QD
[17] = day 11, HTD1801 300 mpk, empagliflozin 15 mpk gavage QD
[18] = day 12, HTD1801 300 mpk, empagliflozin 15 mpk gavage QD
[19] = day 13, HTD1801 300 mpk, empagliflozin 15 mpk gavage QD
[20] = day 14, HTD1801 300 mpk, empagliflozin 15 mpk gavage QD
[21] = day 15, HTD1801 200 mpk, empagliflozin 10 mpk (reduced after week 2) gavage QD
[22] = day 16, HTD1801 200 mpk, empagliflozin 10 mpk (reduced after week 2) gavage QD
[23] = day 17, HTD1801 200 mpk, empagliflozin 10 mpk (reduced after week 2) gavage QD
[24] = day 18, HTD1801 200 mpk, empagliflozin 10 mpk (reduced after week 2) gavage QD
[25] = day 19, HTD1801 200 mpk, empagliflozin 10 mpk (reduced after week 2) gavage QD
[26] = day 20, HTD1801 200 mpk, empagliflozin 10 mpk (reduced after week 2) gavage QD
[27] = day 21, HTD1801 200 mpk, empagliflozin 10 mpk (reduced after week 2) gavage QD
[28] = day 22, HTD1801 200 mpk, empagliflozin 10 mpk (reduced after week 2) gavage QD
[29] = day 23, HTD1801 200 mpk, empagliflozin 10 mpk (reduced after week 2) gavage QD
[30] = day 24, HTD1801 200 mpk, empagliflozin 10 mpk (reduced after week 2) gavage QD
[31] = day 25, HTD1801 200 mpk, empagliflozin 10 mpk (reduced after week 2) gavage QD
[32] = day 26, HTD1801 200 mpk, empagliflozin 10 mpk (reduced after week 2) gavage QD
[33] = day 27, HTD1801 200 mpk, empagliflozin 10 mpk (reduced after week 2) gavage QD
[34] = day 28, HTD1801 200 mpk, empagliflozin 10 mpk (reduced after week 2) gavage QD
[35] = mean, after 25 days of administration, HTD1801 200 mpk, empagliflozin 10 mpk in last 2 weeks (300/15 mpk before), semaglutide 10 nmol/kg s.c. Q3D
[36] = mean, after 25 days of administration, HTD1801 200 mpk, empagliflozin 10 mpk in last 2 weeks (300/15 mpk before)

OC[C@H]1O[C@@H](c2ccc(Cl)c(Cc3ccc(O[C@H]4CCOC4)cc3)c2)[C@H](O)[C@@H](O)[C@@H]1O [Empagliflozin, empagliflozin]
Mean fasting blood glucose level [1, 6]: 7.8 mmol/L
Mean fasting blood glucose level ([1]; day 20, HTD1801 200 mpk, empagliflozin 10 mpk (reduced after week 2)): 7.9 mmol/L
Epididymal fat weight [2]: 2.82 g
Liver weight [2]: 1.34 g
Mesenteric fat weight [2]: 1.20 g
Subcutaneous fat weight [2]: 3.02 g
body weight change (in words) ([3]; after 14 days, reduced dose: HTD1801 200 mpk, empagliflozin 10 mpk): slowly increased
Body weight (mean) [3, 7]: 42.9 g
Body weight change rate [3, 7]: 0.0%
Body weight (mean) [3, 8]: 42.8 g
Body weight change rate [3, 8]: −0.2%
Body weight (mean) [3, 9]: 42.9 g
Body weight change rate [3, 9]: 0.1%
Body weight (mean) [3, 10]: 42.8 g
Body weight change rate [3, 10]: −0.1%
Body weight (mean) [3, 11]: 42.9 g
Body weight change rate [3, 11]: 0.0%
Body weight (mean) [3, 12]: 43.0 g
Body weight change rate [3, 12]: 0.4%
Body weight (mean) [3, 6]: 42.9 g
Body weight change rate [3, 6]: 0.1%
Body weight (mean) [3, 13]: 42.6 g
Body weight change rate [3, 13]: −0.5%
Body weight (mean) [3, 14]: 42.7 g
Body weight change rate [3, 14]: −0.4%
Body weight (mean) [3, 15]: 43.1 g
Body weight change rate [3, 15]: 0.5%
Body weight (mean) [3, 16]: 43.2 g
Body weight change rate [3, 16]: 0.8%
Body weight (mean) [3, 17]: 43.3 g
Body weight change rate [3, 17]: 1.1%
Body weight (mean) [3, 18]: 43.7 g
Body weight change rate [3, 18]: 1.9%
Body weight (mean) [3, 19]: 43.6 g
Body weight change rate [3, 19]: 1.8%
Body weight (mean) [3, 20]: 43.7 g
Body weight change rate [3, 20]: 2.0%
Body weight (mean) [3, 21]: 43.5 g
Body weight change rate [3, 21]: 1.5%
Body weight (mean) [3, 22]: 43.8 g
Body weight change rate [3, 22]: 2.3%
Body weight (mean) [3, 23]: 44.1 g
Body weight change rate [3, 23]: 2.9%
Body weight (mean) [3, 24]: 44.5 g
Body weight change rate [3, 24]: 3.9%
Body weight (mean) [3, 25]: 44.8 g
Body weight change rate [3, 25]: 4.4%
Body weight (mean) [3, 26]: 45.1 g
Body weight change rate [3, 26]: 5.2%
Body weight (mean) [3, 27]: 45.5 g
Body weight change rate [3, 27]: 6.2%
Body weight (mean) [3, 28]: 46.0 g
Body weight change rate [3, 28]: 7.3%
Body weight (mean) [3, 29]: 46.4 g
Body weight change rate [3, 29]: 8.3%
Body weight (mean) [3, 30]: 46.5 g
Body weight change rate [3, 30]: 8.5%
Body weight (mean) [3, 31]: 46.5 g
Body weight change rate [3, 31]: 8.4%
Body weight (mean) [3, 32]: 46.3 g
Body weight change rate [3, 32]: 8.1%
Body weight (mean) [3, 33]: 46.7 g
Body weight change rate [3, 33]: 8.9%
Body weight (mean) [3, 34]: 46.5 g
Body weight change rate [3, 34]: 8.4%
body weight change / weight loss effect (in words) ([3]; within 14 days, HTD1801 300 mpk, empagliflozin 15 mpk gavage QD): basically unchanged in week 1 and gradually increased; also recorded: could not achieve the weight loss effect
body fat mass and body fat ratio (in words) ([4]; after 25 days, relative to control group G2): increased
Body weight ([4]; mean, after 25 days of administration (Table 5), HTD1801 200 mpk, empagliflozin 10 mpk in last 2 weeks (300/15 mpk before), semaglutide 10 nmol/kg s.c. Q3D): 47.53 g
Body fat ratio [4, 35]: 49.13%
Fat (body fat mass) [4, 35]: 23.36 g
lean mass (in words) ([5]; after 25 days, relative to model control group G2): decreased
Body weight ([5]; mean, after 25 days of administration (Table 7), HTD1801 200 mpk, empagliflozin 10 mpk in last 2 weeks (300/15 mpk before)): 47.53 g
Lean (lean mass) [5, 36]: 5.17 g
Lean ratio [5, 36]: 10.92%
